Laboratory results reported in ChEMBL document CHEMBL1146959, “Design and structure-activity relationship of heterocyclic analogs of 4-amino-3-benzimidazol-2-ylhydroquinolin-2-ones as inhibitors of receptor tyrosine kinases” (Bioorg Med Chem Lett, 2006).

Legend:
[1] = Oral bioavailability in mice; format: ADME, organism-based; settings: mouse, in vivo
HMEC = assay: Activity against HMVEC; format: functional, cell-based; settings: Homo sapiens
[2] = Clearance in mice; format: ADME, organism-based; settings: mouse, in vivo
[3] = target: Vascular endothelial growth factor receptor 2 (Mus musculus, UniProt P35918); assay: Inhibitory activity against VEGFR2
[4] = target: Fibroblast growth factor receptor 1 (Homo sapiens, UniProt P11362); assay: Inhibitory activity against FGFR1
[5] = Half life in mice at 5 mg/kg, iv; format: ADME, organism-based; parameters: dose 5 mg/kg, route intravenous; settings: mouse, in vivo
[6] = target: Platelet-derived growth factor receptor beta (Mus musculus, UniProt P05622); assay: Inhibitory activity against PDGFRbeta
[7] = Half life in mice at 20 mg/kg, po; format: ADME, organism-based; parameters: dose 20 mg/kg, route oral; settings: mouse, in vivo
[8] = target: Vascular endothelial growth factor receptor 1 (Homo sapiens, UniProt P17948)
Vascular endothelial growth factor receptor 1, sequence (P17948 whole entry): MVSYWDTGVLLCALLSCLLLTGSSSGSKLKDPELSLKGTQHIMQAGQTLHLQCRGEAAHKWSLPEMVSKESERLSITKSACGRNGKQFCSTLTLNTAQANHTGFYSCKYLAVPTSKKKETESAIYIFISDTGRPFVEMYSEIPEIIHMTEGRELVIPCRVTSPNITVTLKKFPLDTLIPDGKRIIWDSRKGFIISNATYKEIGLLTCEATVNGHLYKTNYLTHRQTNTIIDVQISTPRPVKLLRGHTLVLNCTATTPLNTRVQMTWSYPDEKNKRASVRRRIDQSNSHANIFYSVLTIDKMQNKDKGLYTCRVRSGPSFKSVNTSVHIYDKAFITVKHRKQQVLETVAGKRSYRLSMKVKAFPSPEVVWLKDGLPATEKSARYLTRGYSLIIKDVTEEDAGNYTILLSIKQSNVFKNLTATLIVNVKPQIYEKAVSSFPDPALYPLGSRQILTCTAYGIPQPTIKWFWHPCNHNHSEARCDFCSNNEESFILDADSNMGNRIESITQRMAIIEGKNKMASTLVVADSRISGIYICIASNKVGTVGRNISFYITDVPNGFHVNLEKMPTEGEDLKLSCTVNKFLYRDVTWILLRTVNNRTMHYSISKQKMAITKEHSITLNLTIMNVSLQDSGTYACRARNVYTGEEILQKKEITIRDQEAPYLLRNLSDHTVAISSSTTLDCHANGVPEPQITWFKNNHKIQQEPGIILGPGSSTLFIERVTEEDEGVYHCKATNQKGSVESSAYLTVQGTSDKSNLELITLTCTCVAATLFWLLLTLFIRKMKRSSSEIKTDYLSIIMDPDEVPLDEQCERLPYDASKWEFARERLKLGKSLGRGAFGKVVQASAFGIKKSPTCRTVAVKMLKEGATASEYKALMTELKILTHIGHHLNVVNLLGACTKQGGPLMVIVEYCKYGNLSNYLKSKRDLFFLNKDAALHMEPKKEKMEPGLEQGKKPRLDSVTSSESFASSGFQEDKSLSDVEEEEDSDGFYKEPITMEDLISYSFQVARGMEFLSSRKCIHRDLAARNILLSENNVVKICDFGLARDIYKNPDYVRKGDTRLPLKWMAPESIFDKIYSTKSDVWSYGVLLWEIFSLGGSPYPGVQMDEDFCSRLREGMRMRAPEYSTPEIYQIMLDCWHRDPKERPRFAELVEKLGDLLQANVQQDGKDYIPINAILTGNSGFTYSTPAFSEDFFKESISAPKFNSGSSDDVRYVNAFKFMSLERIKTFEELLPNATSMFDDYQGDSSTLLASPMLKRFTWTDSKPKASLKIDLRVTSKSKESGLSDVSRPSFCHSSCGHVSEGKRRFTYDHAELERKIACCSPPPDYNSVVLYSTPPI
Description: Inhibitory activity against VEGFR1

Platelet-derived growth factor receptor beta, sequence (P05622 whole entry): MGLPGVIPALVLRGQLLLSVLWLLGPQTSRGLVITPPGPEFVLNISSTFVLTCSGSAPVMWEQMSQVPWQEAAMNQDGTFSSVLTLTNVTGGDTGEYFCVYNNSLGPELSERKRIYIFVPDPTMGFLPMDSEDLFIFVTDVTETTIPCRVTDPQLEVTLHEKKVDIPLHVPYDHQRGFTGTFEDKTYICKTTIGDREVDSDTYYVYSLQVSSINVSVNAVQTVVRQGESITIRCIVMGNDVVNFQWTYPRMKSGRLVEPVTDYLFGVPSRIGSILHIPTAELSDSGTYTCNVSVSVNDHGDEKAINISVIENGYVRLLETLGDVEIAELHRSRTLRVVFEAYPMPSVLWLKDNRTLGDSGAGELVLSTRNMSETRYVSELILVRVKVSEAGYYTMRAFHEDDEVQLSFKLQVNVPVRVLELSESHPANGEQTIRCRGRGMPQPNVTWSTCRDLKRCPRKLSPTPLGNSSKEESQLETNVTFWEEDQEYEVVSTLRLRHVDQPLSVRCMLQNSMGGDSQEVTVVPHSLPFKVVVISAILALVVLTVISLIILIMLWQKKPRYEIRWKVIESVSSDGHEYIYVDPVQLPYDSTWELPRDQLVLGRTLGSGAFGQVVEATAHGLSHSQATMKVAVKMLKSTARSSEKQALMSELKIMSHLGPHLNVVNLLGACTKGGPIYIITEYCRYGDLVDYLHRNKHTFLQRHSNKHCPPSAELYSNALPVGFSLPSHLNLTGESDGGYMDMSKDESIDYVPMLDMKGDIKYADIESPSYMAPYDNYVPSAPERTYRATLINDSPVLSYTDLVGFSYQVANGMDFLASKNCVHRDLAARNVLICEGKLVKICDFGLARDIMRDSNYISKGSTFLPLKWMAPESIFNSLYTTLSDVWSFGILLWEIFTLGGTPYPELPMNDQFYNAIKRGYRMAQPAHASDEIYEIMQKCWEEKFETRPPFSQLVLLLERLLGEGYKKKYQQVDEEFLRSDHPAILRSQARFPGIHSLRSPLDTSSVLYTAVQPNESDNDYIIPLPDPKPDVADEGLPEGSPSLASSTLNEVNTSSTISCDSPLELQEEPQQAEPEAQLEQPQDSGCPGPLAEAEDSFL
Fibroblast growth factor receptor 1, sequence (P11362 whole entry): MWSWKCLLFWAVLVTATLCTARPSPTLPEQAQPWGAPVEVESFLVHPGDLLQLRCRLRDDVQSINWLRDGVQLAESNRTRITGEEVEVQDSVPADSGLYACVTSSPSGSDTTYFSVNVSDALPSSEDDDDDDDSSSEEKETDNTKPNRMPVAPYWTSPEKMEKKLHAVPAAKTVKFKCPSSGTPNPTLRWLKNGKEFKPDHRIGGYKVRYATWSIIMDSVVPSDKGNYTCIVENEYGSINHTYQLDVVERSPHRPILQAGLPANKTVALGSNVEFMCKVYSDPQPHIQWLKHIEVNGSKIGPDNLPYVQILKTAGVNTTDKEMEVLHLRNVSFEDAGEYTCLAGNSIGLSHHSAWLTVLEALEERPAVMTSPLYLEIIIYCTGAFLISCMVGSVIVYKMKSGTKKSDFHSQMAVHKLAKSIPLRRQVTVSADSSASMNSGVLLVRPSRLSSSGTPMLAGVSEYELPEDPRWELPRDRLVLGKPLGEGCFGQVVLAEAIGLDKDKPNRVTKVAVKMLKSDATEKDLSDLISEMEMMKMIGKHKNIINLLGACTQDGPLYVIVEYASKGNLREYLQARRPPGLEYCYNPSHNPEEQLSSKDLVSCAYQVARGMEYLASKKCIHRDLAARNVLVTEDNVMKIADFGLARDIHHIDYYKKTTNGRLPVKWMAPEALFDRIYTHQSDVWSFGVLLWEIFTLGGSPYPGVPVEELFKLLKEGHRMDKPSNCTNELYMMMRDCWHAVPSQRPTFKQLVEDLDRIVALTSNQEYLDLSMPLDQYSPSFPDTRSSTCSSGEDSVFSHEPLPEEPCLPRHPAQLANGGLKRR
Vascular endothelial growth factor receptor 2, sequence (P35918 whole entry): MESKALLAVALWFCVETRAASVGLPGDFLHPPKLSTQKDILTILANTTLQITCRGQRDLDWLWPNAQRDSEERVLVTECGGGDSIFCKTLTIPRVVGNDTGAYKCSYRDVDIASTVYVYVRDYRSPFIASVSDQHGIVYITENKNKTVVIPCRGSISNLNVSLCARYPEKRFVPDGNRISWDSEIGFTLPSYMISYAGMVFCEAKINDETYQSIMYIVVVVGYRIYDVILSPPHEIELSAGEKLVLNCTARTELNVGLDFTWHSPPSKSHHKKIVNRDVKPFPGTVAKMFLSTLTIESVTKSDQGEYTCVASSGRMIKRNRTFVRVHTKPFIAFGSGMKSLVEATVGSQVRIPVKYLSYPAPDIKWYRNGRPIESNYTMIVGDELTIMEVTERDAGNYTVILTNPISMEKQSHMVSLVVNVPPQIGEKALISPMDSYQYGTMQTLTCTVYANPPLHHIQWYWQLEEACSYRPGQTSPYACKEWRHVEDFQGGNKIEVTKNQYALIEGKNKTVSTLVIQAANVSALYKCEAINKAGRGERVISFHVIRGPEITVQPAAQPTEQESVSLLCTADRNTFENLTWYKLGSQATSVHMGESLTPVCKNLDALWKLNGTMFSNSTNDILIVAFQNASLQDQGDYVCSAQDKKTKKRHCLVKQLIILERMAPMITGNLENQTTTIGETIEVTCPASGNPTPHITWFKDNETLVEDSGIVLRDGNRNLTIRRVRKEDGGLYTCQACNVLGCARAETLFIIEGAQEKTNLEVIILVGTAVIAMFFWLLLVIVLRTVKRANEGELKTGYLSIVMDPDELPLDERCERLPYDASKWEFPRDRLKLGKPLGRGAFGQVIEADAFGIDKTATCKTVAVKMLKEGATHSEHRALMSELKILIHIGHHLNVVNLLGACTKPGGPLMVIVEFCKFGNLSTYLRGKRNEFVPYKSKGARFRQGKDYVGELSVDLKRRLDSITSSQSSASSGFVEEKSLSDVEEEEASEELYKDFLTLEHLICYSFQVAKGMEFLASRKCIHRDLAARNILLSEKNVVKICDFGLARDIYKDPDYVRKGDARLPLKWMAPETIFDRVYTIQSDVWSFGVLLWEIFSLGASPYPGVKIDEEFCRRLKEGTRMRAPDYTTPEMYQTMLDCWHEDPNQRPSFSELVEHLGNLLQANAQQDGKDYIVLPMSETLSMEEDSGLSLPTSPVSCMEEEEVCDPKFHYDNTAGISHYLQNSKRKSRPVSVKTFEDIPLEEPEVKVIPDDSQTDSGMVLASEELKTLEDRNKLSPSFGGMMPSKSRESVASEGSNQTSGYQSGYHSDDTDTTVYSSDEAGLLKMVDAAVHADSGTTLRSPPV

| Compound | bioavailability [1] | EC50 (HMEC) | clearance [2] | IC50 [3] | IC50 [4] | half-life [5] | IC50 [6] | half-life [7] | IC50 [8] |
| --- | --- | --- | --- | --- | --- | --- | --- | --- | --- |
| Nc1c(-c2nc3cc(N4CCOCC4)ccc3[nH]2)c(=O)[nH]c2ccccc12 | 100% | 40 nM | 13 mL/min/kg | 4 nM | 21 nM | 1.18 h | 38 nM | 3.6 h | – |
| CN1CCN(c2ccc3[nH]c(-c4c(N)c5ccccc5[nH]c4=O)nc3c2)CC1 | – | 20 nM | – | 13 nM | 8 nM | – | 27 nM | – | – |
| CN1CCN(c2ccc3nc(-c4c(N)c5ccccc5[nH]c4=O)[nH]c3n2)CC1 | – | 51 nM | – | 24 nM | 10 nM | – | 30 nM | – | – |
| Nc1c(-c2nc3cccnc3[nH]2)c(=O)[nH]c2ccccc12 | – | 88 nM | – | 16 nM | 51 nM | – | 25 nM | – | – |
| Nc1c(-c2nc3cccnc3[nH]2)c(=O)[nH]c2cnccc12 | – | 77 nM | – | 12 nM | 30 nM | – | 49 nM | – | – |
| Nc1c(-c2nc3cc(N4CCOCC4)ccc3[nH]2)c(O)nc2cnccc12 | 87% | 84 nM | 24 mL/min/kg | 2 nM | 10 nM | 0.433 h | 64 nM | 1.3 h | – |
| Nc1c2cnnc-2[nH]c(O)c1-c1nc2ccccc2[nH]1 | – | 3820 nM | – | 507 nM | 3170 nM | – | 326 nM | – | – |
| CN1CCN(c2ccc3[nH]c(-c4c(O)nc5cccnc5c4N)nc3c2)CC1 | – | 89 nM | – | 33 nM | 43 nM | – | 55 nM | – | – |
| Nc1c(-c2nc3ccccc3[nH]2)c(O)nc2sccc12 | – | 850 nM | – | 109 nM | 348 nM | – | 691 nM | – | – |
| CN1CCN(c2ccc3[nH]c(-c4c(O)nc5cnccc5c4N)nc3c2)CC1 | – | 16 nM | – | 1 nM | 4 nM | – | 43 nM | – | – |
| Oc1nc2cnccc2c(O)c1-c1nc2ccccc2[nH]1 | – | 2200 nM | – | 168 nM | 576 nM | – | 1590 nM | – | – |
| Oc1nc2ncccc2c(O)c1-c1nc2ccccc2[nH]1 | – | > 10000 nM | – | 3000 nM | 5000 nM | – | 6530 nM | – | – |
| O=c1[nH]c2ccccc2c(O)c1-c1nc2ccccc2[nH]1 | – | 428 nM | – | 114 nM | 215 nM | – | 395 nM | – | 162 nM |
| Nc1c(-c2nc3ccc(N4CCOCC4)nc3[nH]2)c(=O)[nH]c2ccccc12 | 84% | 34 nM | 61 mL/min/kg | 8 nM | 47 nM | 1.08 h | 48 nM | 0.95 h | – |
| Nc1c(-c2nc3cc(N4CCOCC4)ccc3[nH]2)c(O)nc2ccncc12 | – | 768 nM | – | 57 nM | 100 nM | – | 18 nM | – | – |
| Cn1ncc2c(N)c(-c3nc4ccccc4[nH]3)c(O)nc21 | – | 321 nM | – | 3000 nM | 3000 nM | – | 575 nM | – | – |
| Nc1c2ncnc-2[nH]c(O)c1-c1nc2ccccc2[nH]1 | – | 3680 nM | – | 552 nM | 2660 nM | – | 154 nM | – | – |
| Nc1c(-c2nc3ccccc3[nH]2)c(=O)[nH]c2ccccc12 | – | – | – | 25 nM | 44 nM | – | 102 nM | – | 28 nM |
| Nc1c(-c2nc3ccccc3[nH]2)c(O)nc2cnccc12 | – | 53 nM | – | 3 nM | 10 nM | – | 57 nM | – | – |
